In ChEMBL document CHEMBL4334431, “Gramicidin S-inspired antimicrobial cyclodextrin to disrupt gram-negative and gram-positive bacterial membranes” (Medchemcomm, 2019):
Converted amounts (≈) assume the structure as drawn. The source made the active and inactive calls. No cut-off for these calls is given here. Square brackets hold non-standard residues; d marks the D form. Peptide text beside a SMILES is read from it. Orn = NCCC[C@H](N)C(=O)O

How the values were obtained:
[1] = test system: Staphylococcus aureus; experiment: Induction of membrane permeabilization in Staphylococcus aureus FDA 209P assessed as decrease in cell viability; format: functional, organism-based
[2] = test system: Staphylococcus aureus; experiment: Antibacterial activity against Staphylococcus aureus FDA 209P assessed as bacterial growth inhibition after 20 hrs by liquid microdilution method; format: functional
[3] = test system: Bacillus subtilis; experiment: Antibacterial activity against Bacillus subtilis 168 assessed as bacterial growth inhibition after 20 hrs by liquid microdilution method; format: functional; conditions: Bacillus subtilis, 168, 20 h
[4] = test system: Escherichia coli; experiment: Antibacterial activity against Escherichia coli K12 W3110 assessed as bacterial growth inhibition after 20 hrs by liquid microdilution method; format: functional
[5] = test system: Salmonella typhimurium; experiment: Antibacterial activity against Salmonella typhimurium LT2 assessed as bacterial growth inhibition after 20 hrs by liquid microdilution method; format: functional, Salmonella enterica subsp. enterica serovar Typhimurium; conditions: Salmonella enterica, LT2, 20 h
[6] = test system: Pseudomonas aeruginosa; experiment: Antibacterial activity against Pseudomonas aeruginosa PAO1 assessed as bacterial growth inhibition after 20 hrs by liquid microdilution method; format: functional
[7] = test system: Staphylococcus aureus; experiment: Induction of membrane permeabilization in Staphylococcus aureus FDA 209P assessed as increase in potassium efflux; format: functional, organism-based
[8] = test system: Escherichia coli; experiment: Induction of membrane permeabilization in Escherichia coli K12 W3110 assessed as increase in potassium efflux; format: functional, organism-based
[9] = Haemolytic activity in rabbit RBCs at 50 uM relative to control; format: ADME, cell-based, Oryctolagus cuniculus, Erythrocyte; conditions: rabbit red blood cells (erythrocytes), read-out: Activity
[10] = Partition coefficient, log P of compound; format: physicochemical; conditions: octanol/water
[11] = test system: Escherichia coli; experiment: Antimicrobial activity against ESBL-producing Escherichia coli assessed as bacterial growth inhibition after 20 hrs by liquid microdilution method; format: functional
[12] = test system: Escherichia coli; experiment: Antimicrobial activity against carbapenem-resistant Escherichia coli assessed as bacterial growth inhibition after 20 hrs by liquid microdilution method; format: functional
[13] = test system: Pseudomonas aeruginosa; experiment: Antibacterial activity against carbapenem-reistant Pseudomonas aeruginosa PAO1 assessed as bacterial growth inhibition after 20 hrs by liquid microdilution method; format: functional; conditions: PAO1, 20 h
[14] = test system: Escherichia coli; experiment: Induction of membrane permeabilization in Escherichia coli K12 W3110 assessed as decrease in cell viability; format: functional, organism-based

| Compound | Activity [1] | MIC [2] [µM] | MIC [3] [µM] | MIC ([4]; K-12 substr. W3110, 20 h) [µM] | MIC [5] [µM] | MIC ([6]; PAO1, 20 h) [µM] | Activity [7] | Activity [8] | hemolysis at 50 µM [9] [%] | logP [10] | MIC [11] [µM] | MIC [12] [µM] | MIC [13] [µM] | Activity [14] | MIC ([4]; K-12 substr. W3110) [µM] | MIC [6] [µM] |
| --- | --- | --- | --- | --- | --- | --- | --- | --- | --- | --- | --- | --- | --- | --- | --- | --- |
| CCC(=O)O[C@@H]1[C@@H](OC(=O)CC)[C@H]2O[C@H]3[C@H](OC(=O)CC)[C@@H](OC(=O)CC)[C@@H](O[C@H]4[C@H](OC(=O)CC)[C@@H](OC(=O)CC)[C@@H](O[C@H]5[C@H](OC(=O)CC)[C@@H](OC(=O)CC)[C@@H](O[C@H]6[C@H](OC(=O)CC)[C@@H](OC(=O)CC)[C@@H](O[C@H]7[C@H](OC(=O)CC)[C@@H](OC(=O)CC)[C@@H](O[C@H]8[C@H](OC(=O)CC)[C@@H](OC(=O)CC)[C@@H](O[C@H]9[C@H](OC(=O)CC)[C@@H](OC(=O)CC)[C@@H](O[C@@H]1[C@@H](Cn1cc(CN)nn1)O2)O[C@@H]9Cn1cc(CN)nn1)O[C@@H]8Cn1cc(CN)nn1)O[C@@H]7Cn1cc(CN)nn1)O[C@@H]6Cn1cc(CN)nn1)O[C@@H]5Cn1cc(CN)nn1)O[C@@H]4Cn1cc(CN)nn1)O[C@@H]3Cn1cc(CN)nn1 | Active | 9 (≈ 25.5 µg/mL) | 2 (≈ 5.67 µg/mL) | 4 (≈ 11.3 µg/mL) | 9 (≈ 25.5 µg/mL) | 4 (≈ 11.3 µg/mL) | Active | Active | 17 | -0.89 | 4 (≈ 11.3 µg/mL) | 9 (≈ 25.5 µg/mL) | 9 (≈ 25.5 µg/mL) | Active | – | – |
| CCCC(=O)O[C@@H]1[C@@H](OC(=O)CCC)[C@H]2O[C@H]3[C@H](OC(=O)CCC)[C@@H](OC(=O)CCC)[C@@H](O[C@H]4[C@H](OC(=O)CCC)[C@@H](OC(=O)CCC)[C@@H](O[C@H]5[C@H](OC(=O)CCC)[C@@H](OC(=O)CCC)[C@@H](O[C@H]6[C@H](OC(=O)CCC)[C@@H](OC(=O)CCC)[C@@H](O[C@H]7[C@H](OC(=O)CCC)[C@@H](OC(=O)CCC)[C@@H](O[C@H]8[C@H](OC(=O)CCC)[C@@H](OC(=O)CCC)[C@@H](O[C@H]9[C@H](OC(=O)CCC)[C@@H](OC(=O)CCC)[C@@H](O[C@@H]1[C@@H](Cn1cc(CN)nn1)O2)O[C@@H]9Cn1cc(CN)nn1)O[C@@H]8Cn1cc(CN)nn1)O[C@@H]7Cn1cc(CN)nn1)O[C@@H]6Cn1cc(CN)nn1)O[C@@H]5Cn1cc(CN)nn1)O[C@@H]4Cn1cc(CN)nn1)O[C@@H]3Cn1cc(CN)nn1 | Active | > 32 | > 32 | > 32 | > 32 | > 32 | Active | Active | 102 | -0.06 | – | – | – | Active | – | – |
| CCC(=O)O[C@@H]1[C@@H](OC(=O)CC)[C@H]2O[C@H]3[C@H](OC(=O)CC)[C@@H](OC(=O)CC)[C@@H](O[C@H]4[C@H](OC(=O)CC)[C@@H](OC(=O)CC)[C@@H](O[C@H]5[C@@H](OC(=O)CC)[C@@H](OC(=O)CC)[C@H](O[C@H]6[C@H](OC(=O)CC)[C@@H](OC(=O)CC)[C@@H](O[C@H]7[C@H](OC(=O)CC)[C@@H](OC(=O)CC)[C@@H](O[C@H]8[C@H](OC(=O)CC)[C@@H](OC(=O)CC)[C@@H](O[C@@H]1[C@@H](Cn1cc(CN)nn1)O2)O[C@@H]8Cn1cc(CN)nn1)O[C@@H]7Cn1cc(CN)nn1)O[C@@H]6Cn1cc(CN)nn1)O[C@@H]5Cn1cc(CN)nn1)O[C@@H]4Cn1cc(CN)nn1)O[C@@H]3Cn1cc(CN)nn1 | – | 5 (≈ 12.4 µg/mL) | 2 (≈ 4.96 µg/mL) | 2 (≈ 4.96 µg/mL) | 5 (≈ 12.4 µg/mL) | 2 (≈ 4.96 µg/mL) | – | – | 20 | -0.89 | 6 (≈ 14.9 µg/mL) | 11 (≈ 27.3 µg/mL) | 6 (≈ 14.9 µg/mL) | – | – | – |
| CC(C)C[C@@H]1NC(=O)[C@H](CCCN)NC(=O)[C@H](C(C)C)NC(=O)[C@@H]2CCCN2C(=O)[C@@H](Cc2ccccc2)NC(=O)[C@H](CC(C)C)NC(=O)[C@H](CCCN)NC(=O)[C@H](C(C)C)NC(=O)[C@@H]2CCCN2C(=O)[C@@H](Cc2ccccc2)NC1=O (cyclo(V[Orn]L[dF]PV[Orn]L[dF]P)) | – | 4 (≈ 4.57 µg/mL) | – | 28 (≈ 32 µg/mL) | – | – | – | – | – | – | – | – | – | – | – | – |
| CCCCCCCCCC(=O)N[C@@H](Cc1c[nH]c2ccccc12)C(=O)N[C@H](CC(N)=O)C(=O)N[C@@H](CC(=O)O)C(=O)N[C@@H]1C(=O)NCC(=O)N[C@@H](CCCN)C(=O)N[C@@H](CC(=O)O)C(=O)N[C@H](C)C(=O)N[C@@H](CC(=O)O)C(=O)NCC(=O)N[C@H](CO)C(=O)N[C@@H]([C@H](C)CC(=O)O)C(=O)N[C@@H](CC(=O)c2ccccc2N)C(=O)O[C@@H]1C | – | 3 (≈ 4.86 µg/mL) | – | – | – | – | – | – | – | – | – | – | – | – | – | – |
| COLISTIN | – | – | – | – | – | – | – | – | – | – | – | – | – | – | 0.7 | 2 |
